Where a name gives a salt, the structure may show the parent alone.
Key:
ROCK II = ROCK II expression in HepG2 cells; format: cell-based; settings: HepG2; for RhoA/ROCK II expression: exogenous GGPP or FPP alone
Protocol: (§1) HepG2 cells were treated with various concentrations of drugs for 24 hours. Reactions were terminated by washing twice with cold PBS, and the cells were then harvested, Proteins in the whole-cell lysate were homogenized in an ice-cold lysis buffer and a protease inhibitor (Sigma-Aldrich, St. Louis, Mo., U.S.A.). The homogenate was centrifuged at 90, 000 g for 15 minutes at 4° C., and supernatant was recovered as the total cellular protein. Cytosolic and membrane fractions of HepG2 cells were prepared using a. CNM (Cytosol Nuclear Membrane) compartment protein extraction kit (BioChain Institute Inc., Hayward, Calif., U.S.A.) according to the manufacturer's instructions. All of the fractionated protein solutions were stored at -80° C. until analysis. To measure the expression levels of proteins by drugs, the total cell protein was extracted after incubation with treatments for 24 hours and then Western blotting analysis was performed as described previously.

PPARγ = PPARγ expression in HepG2 cells; format: cell-based; settings: HepG2; for expression of PPARγ: FPP or GGPP (10 μM) alone
Protocol: as §1, with “−80°” for “-80°”

ABCA1 = ABCA1 expression in HepG2 cells; format: cell-based; settings: HepG2; for expression of ABCA1: FPP or GGPP (10 μM) alone
Protocol: as §1, with “−80°” for “-80°”

PDE-5A = assay: Table 4 PDE-5A (% of control); format: cell-based; settings: control group = 100 (%)
ROCKII = assay: Table 4 ROCKII (% of control); format: cell-based; settings: control group = 100 (%)
Rho-kinase = assay: Table 3 Rho-kinase (% of control); format: cell-based; settings: 10 μM; control group = 100 (%)
eNOS [1] = assay: Table 4 eNOS (% of control); format: cell-based; settings: control group = 100 (%)
PPAR-γ = assay: Table 3 PPAR-γ (% of control); format: cell-based; settings: 10 μM; control group = 100 (%)
eNOS [2] = assay: Table 3 eNOS (% of control); format: cell-based; settings: 10 μM; control group = 100 (%)
p-HSL = assay: Table 3 p-HSL (% of control); format: cell-based; settings: 10 μM; control group = 100 (%)
HMG CoA reductase = HMG CoA reductase expression in HepG2 cells (Western blotting); format: cell-based; settings: HepG2, mevalonate 60, 80, 100 μM
Protocol: The HepG2 hepatoma cell line was purchased from the American Type Culture Collection (ATCC; Manassas, Va., U.S.A.). Cells were cultured in DMEM. The culture media was supplemented with 5% heat-Inactivated FBS, penicillin (100 U/mL) and streptomycin (100 μg/mL). Cells were grown in a humidified atmosphere containing 5% CO2 at 37° C., in which the oxygen tension in the incubator was held at 140 mmHg (20% O2, v/v; normoxic conditions).
as §1, with “−80°” for “-80°”

mice fed with HFD = assay: HFD-fed mice, 8 weeks, gavage: serum/liver lipids, body weight, food intake; format: in vivo; settings: HFD mice, 8 weeks, 5 mg/kg
Protocol: In the 8 week experiment, C57BL/6J male mice (21-22 g), after fasting, were fed a HFD as a model of hyperlipidemia for 8 weeks. During the 2 month experiments, mice fasted for one night before the experiment was changed from a standard diet (STD) to a HFD and then the mice were randomly divided into 5 groups, including 2 control and 3 treatment groups. Six mice were used in each group. […] Liver from the protection group supplemented with KMUP-1 HCl (1 mg/kg/day) were used to determine the HMG CoA reductase expression.
Within 2 months, the 3 day food intake average for each animal was measured. The weight gain and plasma lipid levels of each group were determined and compared to the non-treatment control group. Mouse blood was collected during the daytime by cardiac puncture followed by centrifugation at 90 g (Benchtop Centrifuge, U.S.A.) to separate the serum, and frozen at −80° C., for biochemical analysis using a Hitachi Clinical Analyzer 7070 (Hitachi High-Technologies Co. Tokyo, Japan). Agents used in the assays were Obtained from Merck & Co. (Kenilworth, N.J., U.S.A.). Triglyceride (TG), total cholesterol, HDL cholesterol and LDL cholesterol in mouse serum were measured by methods used in the clinic. To measure the hepatic TG, isolated liver were cut into small chips.

[3] = simvastatin, KMUP-1, Y27632 10^−5M, C3 exoenzyme

## CC(C)=CCC/C(C)=C/CC/C(C)=C/COP(=O)(O)OP(=O)(O)O [FPP, farnesyl pyrophosphate, reference compound]
ROCK II
  RhoA/ROCK II expression: increased
PPARγ
  expression of PPARγ: suppressed
ABCA1
  expression of ABCA1: suppressed

## CC(C)=CCC/C(C)=C/CC/C(C)=C/CC/C(C)=C/COP(=O)(O)OP(=O)(O)O [GGPP, geranylgeranyl pyrophosphate, reference compound]
ROCK II
  RhoA/ROCK II expression: increased
PPARγ
  expression of PPARγ: suppressed
ABCA1
  expression of ABCA1: suppressed

## COc1ccccc1N1CCN(CCn2cnc3c2c(=O)n(C)c(=O)n3C)CC1 [KMUP-2 HCl]
PDE-5A
  PDE-5A: 68.8 ± 5.3%
ROCKII
  ROCKII: 40.8 ± 3.7%

## COc1ccccc1N1CCN(CCn2cnc3c2c(=O)n(C)c(=O)n3C)CC1 [KMUP-2, 7-[2-[4-(2-methoxybenzene)piperazinyl]ethyl]-1,3-dimethylxanthine]
Rho-kinase
  Rho-kinase: 81.9 ± 8.2%

## Cl.Cn1c(=O)c2c(ncn2CCN2CCN(c3ccc([N+](=O)[O-])cc3)CC2)n(C)c1=O [KMUP-3 HCl, 7-[2-[4-(4-nitrobenzene)piperazinyl]ethyl]-1,3-dimethyl xanthine HCl complex]
eNOS [1]
  eNOS: 148.31 ± 7.5%
PDE-5A
  PDE-5A: 63.6 ± 5.2%
ROCKII
  ROCKII: 44.5 ± 2.9%

## Cn1c(=O)c2c(ncn2CCN2CCN(c3ccccc3[N+](=O)[O-])CC2)n(C)c1=O [KMUP-3, 7-[2-[4-(2-nitrobenzene)piperazinyl]ethyl]-1,3-dimethylxanthine]
PPAR-γ
  PPAR-γ: 140.8 ± 15.7%
eNOS [2]
  eNOS: 131.5 ± 13.7%
Rho-kinase
  Rho-kinase: 79.4 ± 6.9%
p-HSL
  p-HSL: 138.2 ± 14.4%

## Cn1c(=O)c2c(ncn2CCN2CCN(c3ccccc3[N+](=O)[O-])CC2)n(C)c1=O [KMUP-4 HCl]
eNOS [1]
  eNOS: 135.24 ± 7.5%
PDE-5A
  PDE-5A: 73.4 ± 3.4%
ROCKII
  ROCKII: 37.6 ± 2.8%

## Cn1c(=O)c2c(ncn2CCN2CCN(c3ccccc3[N+](=O)[O-])CC2)n(C)c1=O [KMUP-4, 7-[2-[4-(2-nitrobenzene)piperazinyl]ethyl]-1,3-dimethylxanthine]
PPAR-γ
  PPAR-γ: 143.7 ± 11.3%
eNOS [2]
  eNOS: 125.6 ± 13.6%
Rho-kinase
  Rho-kinase: 83.7 ± 7.5%
p-HSL
  p-HSL: 136.5 ± 12.6%

## Nc1nc2c(nc(Sc3ccc(Cl)cc3)n2[C@@H]2O[C@@H]3CO[P@@](=O)(S)O[C@H]3[C@H]2O)c(=O)[nH]1 [Rp-8-pCPT-cGMPS, 8-(p-chloro-phenylthio)guanosine-3,5-monophosphorothioate]
ROCK II; 10 μM cGMP antagonist
  ROCK II expression: increased

## C[C@@H](N)[C@H]1CC[C@H](C(=O)Nc2ccncc2)CC1 [Y27632, reference compound]
ROCK II; C3 exoenzyme 5 μg/ml, Y27632 10 μM
  ROCK II expression: reduced
PPARγ; [3]
  PPARγ expression (FIG. 24C): increased
ABCA1; [3]
  ABCA1 expression (FIG. 24D): increased

## CC(O)(CCO)CC(=O)O (stereo not shown) [mevalonate, reference compound]
HMG CoA reductase
  HMG CoA reductase expression: concentration-dependently reduced

## CCC(C)(C)C(=O)O[C@H]1C[C@@H](C)C=C2C=C[C@H](C)[C@H](CC[C@@H]3C[C@@H](O)CC(=O)O3)[C@H]21 [simvastatin, reference compound]
Mice fed with HFD
  HDL cholesterol: 103.2 ± 2.5 mg/dL
  LDL cholesterol: 15.3 ± 1.3 mg/dL
  TG in serum: 82.7 ± 6.3 mg/dL
  TG of liver: 34.5 ± 2.** mg/dl
  Tot. chol. (total cholesterol): 133.7 ± 4.3 mg/dL
  final BW (Body weight): 23.9 ± 0.9 g
